Experimental data: patent publication US20240358777A1, “COMPOSITIONS COMPRISING BACILLUS AMYLOLIQUEFACIENS FOR PREVENTING AND TREATING ULCERATIVE COLITIS” (Artugen Therapeutics Ltd., priority 2021, published 2024)
In brackets after ≈: the same amount, converted by molar mass.

Assays:
ART24 [1] = test: Additional EFSA-recommended MIC studies on ART24 lots and cell banks (Table 7); type: cell-based, Bacillus amyloliquefaciens
Protocol: The minimum inhibitory concentration (MIC) of the listed antimicrobials is expressed as μg/mL. Additional studies following EFSA testing recommendations were performed on lyophilized ART24 lots CO-33-10A2 and CO-33-12A2 and Research and Master Cell Banks CO-33-ART24 BHI and CO-33-ART24 SYD, and those results are shown in Table 7.

ART24 [2] = test: Antibiotic susceptibility of ART24, MIC, VetMIC Lact-1 & Lact-2 panels (Table 6); type: cell-based, Bacillus amyloliquefaciens; conditions: for MIC: Bacillus amyloliquefaciens, read-out: ART24 MIC
Protocol: The minimum inhibitory concentration (MIC) of the listed antimicrobials is expressed as μg/mL. […] From this suspension 46 μL was transferred in to 23 mL of 90% Iso-Sensitest Broth (CM0473, Oxoid) containing 10% BHI broth to end with a final inoculum concentration of 5×10^5 CFU/mL. The wells of the prefabricated 96-well plates were filled with 100 μL of the final suspension. The plates were sealed with an […], Sigma Aldrich) sealing film (to facilitate growth of the […] strains. The plates were then incubated for 24 hr at 37° C. The results are recorded after 24 hours as the lowest concentration of the antibiotic to inhibit visible growth. The prefabricated panels […], Uppsala, Sweden) comprising the antibiotics ampicillin, vancomycin, gentamicin, kanamycin, streptomycin, erythromycin, clindamycin, tetracycline, chloramphenicol, neomycin, penicillin, quinupristin-dalfopristin, linezolid, trimethoprim, ciprofloxacin and rifampicin were used.

[3] = source CO-33-10A2 (lyophilized lot)
[4] = source CO-33-12A2 (lyophilized lot)
[5] = 24 hr at 37° C., average results from N = 6
[6] = Bacillus amyloliquefaciens, source CO-33-10A2 (lyophilized lot), read-out: MIC
[7] = Bacillus amyloliquefaciens, source CO-33-12A2 (lyophilized lot), read-out: MIC
[8] = Bacillus amyloliquefaciens, source CO-33 ART 24 BHI, read-out: MIC
[9] = Bacillus amyloliquefaciens, source CO-33 ART 024 SYD, read-out: MIC

| Molecule | MIC (ART24 [1]; [3]) | MIC (ART24 [1]; [4]) | MIC (ART24 [1]; source CO-33 ART 24 BHI) | MIC (ART24 [1]; source CO-33 ART 024 SYD) | ART24 MIC (ART24 [2]; [5]) | MIC (ART24 [1]; [6]) | MIC (ART24 [1]; [7]) | MIC (ART24 [1]; [8]) | MIC (ART24 [1]; [9]) | MIC interpretation (ART24 [1]; source CO-33-10A2) | MIC interpretation (ART24 [1]; source CO-33-12A2) | MIC interpretation (ART24 [1]; source CO-33 ART 24 BHI) | MIC interpretation (ART24 [1]; source CO-33 ART 024 SYD) | MIC (ART24 [2]; [5]) | MIC (ART24 [1]; Bacillus amyloliquefaciens, source CO-33-10A2 (lyophilized lot)) | MIC (ART24 [1]; Bacillus amyloliquefaciens, source CO-33-12A2 (lyophilized lot)) | MIC (ART24 [1]; Bacillus amyloliquefaciens, source CO-33 ART 24 BHI) | MIC (ART24 [1]; Bacillus amyloliquefaciens, source CO-33 ART 024 SYD) | MIC (ART24 [2]; 24 h) |
| --- | --- | --- | --- | --- | --- | --- | --- | --- | --- | --- | --- | --- | --- | --- | --- | --- | --- | --- | --- |
| Quinupristin-dalfopristin | 1 µg/mL | 2 µg/mL | 2 µg/mL | 2 µg/mL | 4 µg/mL | – | – | – | – | – | – | – | – | – | – | – | – | – | – |
| [H]/N=C(/N)N[C@H]1[C@H](O)[C@@H](O)[C@H](O[C@@H]2O[C@@H](C)[C@](O)(C=O)[C@H]2O[C@@H]2O[C@@H](CO)[C@H](O)[C@@H](O)[C@@H]2NC)[C@@H](N/C(N)=N\[H])[C@@H]1O [Streptomycin] | – | – | – | – | – | 1 µg/mL (≈ 1.72 µM) | 1 µg/mL (≈ 1.72 µM) | 1 µg/mL (≈ 1.72 µM) | 2 µg/mL (≈ 3.44 µM) | (S) | (S) | (S) | (S) | 4 µg/mL (≈ 6.88 µM) | – | – | – | – | – |
| COc1cc(Cc2cnc(N)nc2N)cc(OC)c1OC [Trimethoprim] | – | – | – | – | – | ≤ 0.25 µg/mL | < 0.25 µg/mL | < 0.25 µg/mL | < 0.25 µg/mL | – | – | – | – | < 0.12 µg/mL | – | – | – | – | – |
| CC(=O)NC[C@H]1CN(c2ccc(N3CCOCC3)c(F)c2)C(=O)O1 [Linezolid] | – | – | – | – | – | 0.25 µg/mL (≈ 0.741 µM) | 0.5 µg/mL (≈ 1.48 µM) | 0.5 µg/mL (≈ 1.48 µM) | 0.5 µg/mL (≈ 1.48 µM) | – | – | – | – | 0.5 µg/mL (≈ 1.48 µM) | – | – | – | – | – |
| CCC[C@@H]1C[C@@H](C(=O)N[C@@H]([C@H]2O[C@H](SC)[C@H](O)[C@@H](O)[C@H]2O)[C@H](C)Cl)N(C)C1 [Clindamycin] | – | – | – | – | – | 0.12 µg/mL (≈ 0.282 µM) | 0.25 µg/mL (≈ 0.588 µM) | 0.25 µg/mL (≈ 0.588 µM) | 0.25 µg/mL (≈ 0.588 µM) | (S) | (S) | (S) | (S) | 0.5 to 1 µg/mL (≈ 1.18 to 2.35 µM) | – | – | – | – | – |
| CC1(C)S[C@@H]2[C@H](NC(=O)[C@H](N)c3ccccc3)C(=O)N2[C@H]1C(=O)O [Ampicillin] | – | – | – | – | – | ≤ 0.03 µg/mL | ≤ 0.03 µg/mL | ≤ 0.03 µg/mL | ≤ 0.03 µg/mL | (S) | (S) | (S) | (S) | 0.25 µg/mL (≈ 0.715 µM) | – | – | – | – | – |
| CN[C@H](CC(C)C)C(=O)N[C@H]1C(=O)N[C@@H](CC(N)=O)C(=O)N[C@H]2C(=O)N[C@H]3C(=O)N[C@H](C(=O)N[C@H](C(=O)O)c4cc(O)cc(O)c4-c4cc3ccc4O)[C@H](O)c3ccc(c(Cl)c3)Oc3cc2cc(c3O[C@@H]2O[C@H](CO)[C@@H](O)[C@H](O)[C@H]2O[C@H]2C[C@](C)(N)[C@H](O)[C@H](C)O2)Oc2ccc(cc2Cl)[C@H]1O [Vancomycin] | – | – | – | – | – | – | – | – | – | (S) | (S) | (S) | (S) | – | ≤ 0.25 µg/mL | ≤ 0.25 µg/mL | 0.5 µg/mL (≈ 0.345 µM) | ≤ 0.25 µg/mL | 0.5 to 1 µg/mL (≈ 0.345 to 0.69 µM) |
| Gentamicin | ≤0.06 µg/mL | ≤0.06 µg/mL | ≤0.06 µg/mL | ≤0.06 µg/mL | ≤0.5 µg/mL | – | – | – | – | (S) | (S) | (S) | (S) | – | – | – | – | – | – |
| CO[C@H]1/C=C/O[C@@]2(C)Oc3c(C)c(O)c4c(O)c(c(/C=N/N5CCN(C)CC5)c(O)c4c3C2=O)NC(=O)/C(C)=C\C=C\[C@H](C)[C@H](O)[C@@H](C)[C@@H](O)[C@@H](C)[C@H](OC(C)=O)[C@@H]1C [Rifampicin] | – | – | – | – | – | 0.25 µg/mL (≈ 0.304 µM) | 0.25 µg/mL (≈ 0.304 µM) | 0.25 µg/mL (≈ 0.304 µM) | 0.25 µg/mL (≈ 0.304 µM) | (S) | (S) | (S) | (S) | 0.5 µg/mL (≈ 0.608 µM) | – | – | – | – | – |
